Test [1] concerns the target T1, DPP1 (Homo sapiens, UniProt P53634). The experiment in a line: Human DPP1 Enzyme IC50 Assay. As to conditions: activated recombinant human DPP1, H-Gly-Arg-AMC substrate 400 μM, pH 6.0. The class given is biochemical. Also noted: is first proteolytically processed into its mature form using recombinant human cathepsin L; purchased R&D Systems. How it is done:
Human DPP1 Enzyme IC50 Assay
Recombinant human DPP1 enzyme (R&D Systems; Minneapolis, MN) is first proteolytically processed into its mature form using recombinant human cathepsin L (R&D Systems) in a buffer consisting of 20 mM citric acid pH 4.5, 150 mM NaCl, 1 mM EDTA and 10 mM DTT. Test articles are applied to activated human DPP1 enzyme in Assay Buffer (25 mM MES pH 6.0, 50 mM NaCl, 5 mM DTT) in a total reaction volume of 125 μL. 25 μL of compound in Assay Buffer plus 5% DMSO is first added to 50 μL of activated human DPP1 enzyme at a concentration of 1 ng/μL and allowed to pre-incubate for 10 minutes at 37° C. after which 50 μL of 1000 μM H-Gly-Arg-AMC substrate (Bachem; St. Torrance, CA) is added, giving final substrate concentration of 400 μM and a final DMSO concentration of 1%. Substrate cleavage is measured for 90 minutes at 37° C., with fluorescence at Excitation/Emission 350/450 nm measured every 5 minutes. DPP1 concentration is interpolated based on its activity relative to a standard curve of activated human recombinant DPP1 enzyme. IC50 values for each compound are calculated via the XLFit (IDBS Version 5.3.1.3) Add-On to Microsoft Excel using the four parameter fit equation y={A+[(B−A)]/[1+((C/x)^D)]}, which appears as equation number 205 (4 Parameter Logistic Model or Sigmoidal Dose-Response Model) in XLFit. Default constraints are used for each Parameter. IC50 is defined as the compound concentration at which […] of enzyme activity is inhibited when compared to the no-compound control. The IC50 table is included in the table below.
Target sequence in this assay (P53634 25-134 limits assumed): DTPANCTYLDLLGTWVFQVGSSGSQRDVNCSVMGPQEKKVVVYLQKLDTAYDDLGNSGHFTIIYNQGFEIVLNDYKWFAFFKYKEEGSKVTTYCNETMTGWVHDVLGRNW
Target sequence in this assay (P53634 231-394 limits assumed): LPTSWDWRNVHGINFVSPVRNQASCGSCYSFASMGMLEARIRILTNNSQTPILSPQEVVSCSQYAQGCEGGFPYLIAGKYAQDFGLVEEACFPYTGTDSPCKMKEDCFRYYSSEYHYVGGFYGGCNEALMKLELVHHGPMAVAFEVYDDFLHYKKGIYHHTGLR
Target sequence in this assay (P53634 395-463 limits assumed): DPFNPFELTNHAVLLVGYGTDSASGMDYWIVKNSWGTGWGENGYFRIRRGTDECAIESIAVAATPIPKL

Another test addresses T2, active mouse DPP1 enzyme (Mus musculus, UniProt P97821).
T2 construct: Test articles are applied to active mouse DPP1 enzyme; purchased R&D Systems
The experiment in a line: Mouse DPP1 Enzyme IC50 Assay. The class given is biochemical. As to conditions: active mouse DPP1, H-Gly-Arg-AMC substrate 400 μM, pH 5.5. The procedure:
Mouse DPP1 Enzyme IC50 Assay
Test articles are applied to active mouse DPP1 enzyme (R&D Systems; Minneapolis, MN) in Assay Buffer (50 mM MES pH 5.5, 50 mM NaCl, 5 mM DTT) in a total reaction volume of 125 μL. 25 μL of compound in Assay Buffer plus 5% DMSO is first added to 50 μL of active mouse DPP1 enzyme at a concentration of 62.5 pg/μL and allowed to pre-incubate for 10 minutes at 37° C. after which 50 μL of 1000 μM H-Gly-Arg-AMC substrate (Bachem; St. Torrance, CA) is added, giving final substrate concentration of 400 μM and a final DMSO concentration of 1%. Substrate cleavage is measured for 90 minutes at 37° C., with fluorescence at Excitation/Emission 350/450 nm measured every 5 minutes. DPP1 concentration is interpolated based on its activity relative to a standard curve of recombinant active mouse DPP1 enzyme. IC50 values for each compound are calculated via the XLFit (IDBS Version 5.3.1.3) Add-On to Microsoft Excel using the four parameter fit equation y=(A+((B-A)/(1+((C/x)^D)))), which appears as equation number 205 (4 Parameter Logistic Model or Sigmoidal Dose-Response Model) in XLFit. Default constraints are used for each Parameter. IC50 is defined as the compound concentration at which 50% of enzyme activity is inhibited when compared to the no-compound control.

For test [2], the target named is T1, DPP1. The experiment in a line: Cell Assay (DPP1 IC50 values, Table 2). The class given is cell-based. Conditions: method not described.
Target sequence in this assay (P53634 25-463): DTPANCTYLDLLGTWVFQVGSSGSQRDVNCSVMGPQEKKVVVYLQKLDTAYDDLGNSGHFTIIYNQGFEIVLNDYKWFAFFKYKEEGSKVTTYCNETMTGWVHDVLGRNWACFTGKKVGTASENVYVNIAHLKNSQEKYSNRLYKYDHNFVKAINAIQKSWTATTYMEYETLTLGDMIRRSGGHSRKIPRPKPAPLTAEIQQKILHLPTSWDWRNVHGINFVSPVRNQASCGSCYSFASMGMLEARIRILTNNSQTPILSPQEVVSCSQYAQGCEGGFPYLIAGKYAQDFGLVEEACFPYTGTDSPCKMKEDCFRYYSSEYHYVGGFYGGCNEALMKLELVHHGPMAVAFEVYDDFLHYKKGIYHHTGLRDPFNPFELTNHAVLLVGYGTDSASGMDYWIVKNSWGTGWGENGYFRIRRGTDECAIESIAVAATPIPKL

Molecules are shown by their SMILES. Where only a bound is given, the exact number is not on record here.

T2 sequence (P97821 25-134 limits assumed): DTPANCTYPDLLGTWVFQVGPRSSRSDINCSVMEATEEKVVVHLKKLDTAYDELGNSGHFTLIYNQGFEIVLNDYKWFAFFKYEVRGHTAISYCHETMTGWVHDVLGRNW
T2 sequence (P97821 231-393 limits assumed): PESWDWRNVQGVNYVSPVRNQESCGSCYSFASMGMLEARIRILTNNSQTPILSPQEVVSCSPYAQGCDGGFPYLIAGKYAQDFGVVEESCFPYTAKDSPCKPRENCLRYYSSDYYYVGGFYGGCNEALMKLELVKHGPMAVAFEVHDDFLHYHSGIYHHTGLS
T2 sequence (P97821 394-462 limits assumed): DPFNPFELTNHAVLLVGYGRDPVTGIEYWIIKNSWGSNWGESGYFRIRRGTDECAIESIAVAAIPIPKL

Take `Cn1c(=O)oc2ccc(C34CC(C[C@@H](C#N)NC(=O)[C@@H]5CNCCCO5)(C3)C4)cc21` [Compound 101d]: the half-maximal inhibitory concentration (IC50) at DPP1 [1] was not below 15 nM.
For the compound `Cn1c(=O)oc2ccc(-c3cc4ccc(C[C@@H](C#N)NC(=O)C5CNCCCO5)cc4s3)cc21` (stereo partly shown) [Compound 112b], the IC50 on DPP1 [1] is not below 15 nM.
Take `Cn1c(=O)oc2ccc(-c3ccc4cc(C[C@@H](C#N)NC(=O)[C@@H]5CNCCCO5)sc4c3)cc21` [Compound 113b]: the IC50 against active mouse DPP1 enzyme is not below 20 nM; at DPP1 [1] it was not below 15 nM; against DPP1 [2] it was not below 1.5 nM.
Turning to `Cn1c(=O)oc2ccc(-c3ccc4sc(C[C@@H](C#N)NC(=O)C5CNCCCO5)cc4c3)cc21` (stereo partly shown) [Compound 114b], the IC50 against active mouse DPP1 enzyme was not below 20 nM; at DPP1 [1] it was not below 15 nM; against DPP1 [2] it was not below 1.5 nM.
With `Cn1c(=O)oc2ccc(-c3ccc4sc(C[C@@H](C#N)NC(=O)[C@@H]5CNCCCO5)c(F)c4c3)cc21` [Compound 115b], the IC50 on active mouse DPP1 enzyme was not below 20 nM; at DPP1 [1] it was not below 15 nM; against DPP1 [2] it was not below 1.5 nM.
The matching figures for `Cn1c(=O)oc2ccc(-c3cc4sc(CC(C#N)NC(=O)[C@@H]5CNCCCO5)cc4s3)cc21` (stereo partly drawn) [Compound 118b, (2S)—N-(1-cyano-2-(5-(3-methyl-2-oxo-2,3-dihydrobenzo[d]oxazol-5-yl)thieno[3,2-b]thiophen-2-yl)ethyl)-1,4-oxazepane-2-carboxamide]: not below 20 nM, not below 15 nM and not below 1.5 nM.
Regarding `Cn1c(=O)oc2ccc(-c3ccc4cc(CC(C#N)NC(=O)[C@@H]5CNCCCO5)[nH]c4c3)cc21` (stereo partly drawn) [Compound 128b, (2S)—N-(1-cyano-2-(6-(3-methyl-2-oxo-2,3-dihydrobenzo[d]oxazol-5-yl)-1H-indol-2-yl)ethyl)-1,4-oxazepane-2-carboxamide], the IC50 was not below 15 nM at DPP1 [1] and not below 1.5 nM against DPP1 [2].
Regarding `Cn1c(=O)oc2ccc(-c3ccc4c(F)c(C[C@@H](C#N)NC(=O)[C@@H]5CNCCCO5)sc4c3)cc21` [Compound 130b], the results for the IC50 at DPP1 [1] and against DPP1 [2] were not below 15 nM and not below 1.5 nM, respectively.
With `Cn1c(=O)oc2ccc(-c3cc4cc(C[C@@H](C#N)NC(=O)C5CNCCCO5)ccc4s3)cc21` (stereo partly shown) [Compound 131b], the IC50 on DPP1 [1] is not below 15 nM; at DPP1 [2], not below 1.5 nM.
In the case of `Cn1c(=O)oc2ccc(-c3ccc4cc(CC(C#N)NC(=O)[C@@H]5CNCCCO5)ccc4c3)cc21` (stereo partly drawn) [Compound 133b, (2S)—N-{1-cyano-2-[6-(3-methyl-2-oxo-1,3-benzoxazol-5-yl)naphthalen-2-yl]ethyl}-1,4-oxazepane-2-carboxamide], the IC50 at DPP1 [1] is not below 15 nM; against DPP1 [2], not below 1.5 nM.
For the compound `Cn1c(=O)oc2ccc(-c3cc4ccc(C[C@@H](C#N)NC(=O)[C@@H]5CNCCCO5)c(F)c4s3)cc21` [Compound 134a], the IC50 at DPP1 [1] was not below 15 nM; at DPP1 [2], not below 1.5 nM.
With `CCN1C(=O)Cc2ccc(-c3cc4sc(C[C@@H](C#N)NC(=O)[C@@H]5CNCCCCO5)cc4s3)cc21` [Compound 138b, (2S)—N-[(1S)-1-cyano-2-[5-(1-ethyl-2-oxo-3H-indol-6-yl)thieno[3,2-b]thiophen-2-yl]ethyl]-1,4-oxazocane-2-carboxamide], the IC50 is not below 15 nM at DPP1 [1] and not below 1.5 nM at DPP1 [2].
The matching figures for `CCN1C(=O)Cc2ccc(-c3cc4sc(C[C@H](C#N)NC(=O)[C@@H]5CNCCCCO5)cc4s3)cc21` [Compound 138c, (2S)—N-[(1R)-1-cyano-2-[5-(1-ethyl-2-oxo-3H-indol-6-yl)thieno[3,2-b]thiophen-2-yl]ethyl]-1,4-oxazocane-2-carboxamide]: not below 15 nM and not below 1.5 nM.
Take `Cn1c(=O)oc2ccc(-c3cc4sc(C[C@@H](C#N)NC(=O)[C@@H]5CNCCCCO5)cc4s3)cc21` [Compound 139b, (2S)—N-[(1S)-1-cyano-2-[5-(3-methyl-2-oxo-1,3-benzoxazol-5-yl)thieno[3,2-b]thiophen-2-yl]ethyl]-1,4-oxazocane-2-carboxamide]: the IC50 is not below 15 nM on DPP1 [1] and not below 1.5 nM at DPP1 [2].
Consider `Cn1c(=O)oc2ccc(-c3cc4sc(C[C@H](C#N)NC(=O)[C@@H]5CNCCCCO5)cc4s3)cc21` [Compound 139c, (2S)—N-[(1R)-1-cyano-2-[5-(3-methyl-2-oxo-1,3-benzoxazol-5-yl)thieno[3,2-b]thiophen-2-yl]ethyl]-1,4-oxazocane-2-carboxamide], for which the IC50 is not below 15 nM on DPP1 [1] and not below 1.5 nM at DPP1 [2].
The matching figures for `CO[C@@H]1CCNC[C@@H](C(=O)N[C@H](C#N)Cc2cc3sc(-c4ccc5oc(=O)n(C)c5c4)cc3s2)OC1` [Compound 142b]: 5 to 15 nM and not below 1.5 nM.

The record behind these values is patent publication US20260265207A1, “DPP1 INHIBITORS WITH POLYCYCLIC LINKERS AND USES THEREOF” (Insmed Incorporated, priority 2023, published 2026).
